This note sets out measurements from patent US20250019376A1, “CHROMANE AMIDINE MONOBACTAM ANTIBIOTICS” (priority 2021, published 2025).

What all share (details): lowest concentration inhibiting 95% of growth (OD600); with BLi relebactam 4 μg/mL; 22 hours, 35±2° C.
In experiment [1] the test system is Acinetobacter baumannii expressing TEM-1, AmpC, and Oxa-24/40 (CL6188). It is filed as cell-based. On the procedure:
(§1) The concentrations of compounds required to inhibit the growth of various strains of bacteria were determined in an assay that assessed bacterial growth by measuring optical density at 600 nm (OD600). The bacterial strains tested included the clinical strains Escherichia co/i expressing NDM-1 (CLB30016), Klebsiella pneumoniae expressing KPC-1 (CL6569), Acinetobacter baumannii expressing TEM-1, AmpC, and Oxa-24/40 (CL6188) and Pseudomonas aeruginosa expressing AmpC (CL5701). All compounds were tested in the presence of a f3 lactamase inhibitor (BLi, Relebactam) in 384-well microplates.
(§2) The clinical strains were stored as frozen single use stocks, thawed and diluted into 1.1× cation-adjusted Mueller-Hinton 11 broth to achieve approximately 2×10^5 CFU/mL. Test compounds were dissolved in DMSO and diluted 1:50 in the assay, resulting in a final concentration range of 100 μM to 0.098 μM. On the day of the assay, 1 μL of test compound was added to the plate followed by 4 μL of 50 μg/mL BLi in MOPS buffer and 45 μL of diluted bacteria. Plates were centrifuged at 1000 rpm for 30 seconds, shaken at approximately 800 rpm for 1 minute, and incubated at 35±2° C. for 22 hours. The concentration of BLi used in the assay was 4 μg/mL. At the end of the incubation, absorbance at 600 nm was determined using a spectrophotometer. Inhibition was quantitated by identifying the lowest concentration of test compound that was required to inhibit […] of the growth of the bacteria.

The test system of experiment [2] is Klebsiella pneumoniae expressing KPC-1 (CL6569). Put plainly: Growth inhibitory concentration (OD600), K. pneumoniae CL6569. The experiment is classed as cell-based. On the procedure: as §1, §2
Experiment [3] relates to Pseudomonas aeruginosa expressing AmpC (CL5701). Put plainly: Growth inhibitory concentration (OD600), P. aeruginosa CL5701. It is filed as cell-based. On the procedure:
as §1, §2

Experiment [4] has as its system Escherichia co/i expressing NDM-1 (CLB30016). Put plainly: Growth inhibitory concentration (OD600), E. coli CLB30016. It is filed as cell-based, Escherichia coli. On the procedure: as §1, §2

Take `CC1(C)[C@H](NC(=O)/C(=N\O[C@](C)(C(=O)O)[C@H]2CCc3cc(C(=N)N[C@H]4C[C@H]5CC[C@@H](C4)N5)ccc3O2)c2csc(N)n2)C(=O)N1OS(=O)(=O)O` [Compound 136, (S)-2-((R)-6-(N-((1R,3r,5S)-8-azabicyclo[3.2.1]octan-3-yl)carbamimidoyl)chroman-2-yl)-2-((((Z)-1-(2-aminothiazol-4-yl)-2-(((S)-2,2-dimethyl-4-oxo-1-(sulfooxy)azetidin-3-yl)amino)-2-oxoethylidene)amino)oxy)propanoic acid]: the “AB_CL6188 MITC95” value in experiment [1] is 6.25 µM. The “KP_CL6569 MITC95” value in experiment [2] was 0.7813 µM. Moreover, the “PA_CL5701 MITC95” value in experiment [3] is 1.563 µM.
In the case of `COCc1c(C(=N)N[C@H]2C[C@@H](N)C2)ccc2c1CC[C@H]([C@](C)(O/N=C(\C(=O)N[C@@H]1C(=O)N(OS(=O)(=O)O)C1(C)C)c1csc(N)n1)C(=O)O)O2` [Compound 124, (S)-2-((R)-6-(N-((1s,3S)-3-aminocyclobutyl)carbamimidoyl)-5-(methoxymethyl)chroman-2-yl)-2-((((Z)-1-(2-aminothiazol-4-yl)-2-(((S)-2,2-dimethyl-4-oxo-1-(sulfooxy)azetidin-3-yl)amino)-2-oxoethylidene)amino)oxy)propanoic acid], in experiment [1], the “AB_CL6188 MITC95” value came out at 12.5 µM. Further, the “EC_CLB30016 MITC95” value in experiment [4] was found to be 50 µM. Further, in experiment [2], the “KP_CL6569 MITC95” value came out at 1.563 µM.
For the compound `CC1(C)[C@H](NC(=O)/C(=N\O[C@](C)(C(=O)O)[C@H]2CCc3cc(C(=N)N[C@]4(C)CC[C@](N)(CO)CC4)ccc3O2)c2csc(N)n2)C(=O)N1OS(=O)(=O)O` [Compound 135, (S)-2-((R)-6-(N-((1r,4R)-4-amino-4-(hydroxymethyl)-1-methylcyclohexyl)-carbamimidoyl)chroman-2-yl)-2-((((Z)-1-(2-aminothiazol-4-yl)-2-(((S)-2,2-dimethyl-4-oxo-1-(sulfooxy)azetidin-3-yl)amino)-2-oxoethylidene)amino)oxy)propanoic acid], the “AB_CL6188 MITC95” value in experiment [1] came to 12.5 µM. In addition, the “KP_CL6569 MITC95” value in experiment [2] turned out to be 0.7813 µM. Moreover, the “PA_CL5701 MITC95” value in experiment [3] was found to be 3.125 µM.
The corresponding values for `CC1(C)[C@H](NC(=O)/C(=N\O[C@](C)(C(=O)O)[C@H]2CCc3cc(C(=N)NC4CC5(CC(N)C5)C4)ccc3O2)c2csc(N)n2)C(=O)N1OS(=O)(=O)O` (stereo partly drawn) [Compound 61, (S)-2-((R)-6-(N-((2R,4r,6R)-6-aminospiro[3.3]heptan-2-yl)carbamimidoyl)chroman-2-yl)-2-((((Z)-1-(2-aminothiazol-4-yl)-2-(((S)-2,2-dimethyl-4-oxo-1-(sulfooxy)azetidin-3-yl)amino)-2-oxoethylidene)amino)oxy)propanoic acid] are 6.25 µM, 0.3906 µM and 1.563 µM.
For the compound `CC1(C)[C@H](NC(=O)/C(=N\O[C@](C)(C(=O)O)[C@H]2CCc3cc(C(=N)NC4CC(N)(C[C@H](O)CO)C4)ccc3O2)c2csc(N)n2)C(=O)N1OS(=O)(=O)O` (stereo partly drawn) [Compound 94, (S)-2-((R)-6-(N-((1S,3R)-3-amino-3-((S)-2,3-dihydroxypropyl)cyclobutyl)carbamimidoyl)chroman-2-yl)-2-((((Z)-1-(2-aminothiazol-4-yl)-2-(((S)-2,2-dimethyl-4-oxo-1-(sulfooxy)azetidin-3-yl)amino)-2-oxoethylidene)amino)oxy)propanoic acid], in experiment [1], the “AB_CL6188 MITC95” value is 6.25 µM. The “EC_CLB30016 MITC95” value in experiment [4] was 3.125 µM. For the same compound, in experiment [2], the “KP_CL6569 MITC95” value is 0.3906 µM.
With `CC1(C)[C@H](NC(=O)/C(=N\O[C@](C)(C(=O)O)[C@H]2CCc3cc(C(=N)NC4CCC(N)(CO)CC4)ccc3O2)c2csc(N)n2)C(=O)N1OS(=O)(=O)O` (stereo partly drawn) [Compound 70, (S)-2-((R)-6-(N-((1s,4S)-4-amino-4-(hydroxymethyl)cyclohexyl)carbamimidoyl)chroman-2-yl)-2-((((Z)-1-(2-aminothiazol-4-yl)-2-(((S)-2,2-dimethyl-4-oxo-1-(sulfooxy)azetidin-3-yl)amino)-2-oxoethylidene)amino)oxy)propanoic acid], the “AB_CL6188 MITC95” value in experiment [1] stood at 4.688 µM. In addition, the “KP_CL6569 MITC95” value in experiment [2] was 0.293 µM.
With `CC1(C)[C@H](NC(=O)/C(=N\O[C@](C)(C(=O)O)[C@H]2CCc3cc(C(=N)N[C@H]4C[C@@H](N)C4)ccc3O2)c2csc(N)n2)C(=O)N1OS(=O)(=O)O` [Compound 7, (S)-2-((R)-6-(N-((1 s,3 S)-3-aminocyclobutyl)carbamimidoyl)chroman-2-yl)-2-((((Z)-1-(2-aminothiazol-4-yl)-2-(((S)-2,2-dimenthyl-4-oxo-1-(sulfooxy)azetidin-3-yl)amino)-2-oxoethylidene)amino)oxy)propanoic acid], the “AB_CL6188 MITC95” value in experiment [1] was found to be 5.729 µM. Moreover, the “EC_CLB30016 MITC95” value in experiment [4] amounted to 4.688 µM. For the same compound, in experiment [2], the “KP_CL6569 MITC95” value turned out to be 0.3906 µM.
Regarding `COCC[C@]1(N)CC[C@H](NC(=N)c2ccc3c(c2)CC[C@H]([C@](C)(O/N=C(\C(=O)N[C@@H]2C(=O)N(OS(=O)(=O)O)C2(C)C)c2csc(N)n2)C(=O)O)O3)CC1` [Compound 64, (S)-2-((R)-6-(N-((1r,4R)-4-amino-4-(2-methoxyethyl)cyclohexyl)carbamimidoyl)chroman-2-yl)-2-((((Z)-1-(2-aminothiazol-4-yl)-2-(((S)-2,2-dimethyl-4-oxo-1-(sulfooxy)azetidin-3-yl)amino)-2-oxoethylidene)amino)oxy)propanoic acid], the “AB_CL6188 MITC95” value in experiment [1] came to 6.25 µM. Also, in experiment [2], the “KP_CL6569 MITC95” value turned out to be 0.7813 µM. Besides, the “PA_CL5701 MITC95” value in experiment [3] is 3.125 µM.
Consider `COC[C@]1(NC(=N)c2ccc3c(c2)CC[C@H]([C@](C)(O/N=C(\C(=O)N[C@@H]2C(=O)N(OS(=O)(=O)O)C2(C)C)c2csc(N)n2)C(=O)O)O3)CC[C@H](N)CC1` [Compound 127, (S)-2-((R)-6-(N-((1r,4R)-4-amino-1-(methoxymethyl)cyclohexyl)carbamimidoyl)chroman-2-yl)-2-((((Z)-1-(2-aminothiazol-4-yl)-2-(((S)-2,2-dimethyl-4-oxo-1-(sulfooxy)azetidin-3-yl)amino)-2-oxoethylidene)amino)oxy)propanoic acid], for which, in experiment [1], the “AB_CL6188 MITC95” value is 12.5 µM. Also, the “EC_CLB30016 MITC95” value in experiment [4] came out at 6.25 µM. In addition, in experiment [2], the “KP_CL6569 MITC95” value was 0.7813 µM.
Regarding `CC1(C)[C@H](NC(=O)/C(=N\O[C@](C)(C(=O)O)[C@H]2CCc3cc(C(=N)N[C@H]4C[C@@](N)(C[C@@H](O)CO)C4)ccc3O2)c2csc(N)n2)C(=O)N1OS(=O)(=O)O` [Compound 95, (S)-2-((R)-6-(N-((1R,3R)-3-amino-3-((R)-2,3-dihydroxypropyl)cyclobutyl)carbamimidoyl)chroman-2-yl)-2-((((Z)-1-(2-aminothiazol-4-yl)-2-(((S)-2,2-dimethyl-4-oxo-1-(sulfooxy)azetidin-3-yl)amino)-2-oxoethylidene)amino)oxy)propanoic acid], the “AB_CL6188 MITC95” value in experiment [1] is 6.25 µM. Also, the “EC_CLB30016 MITC95” value in experiment [4] turned out to be 6.25 µM. For the same compound, the “KP_CL6569 MITC95” value in experiment [2] came out at 0.3906 µM.
With `COC[C@]1(NC(=N)c2ccc3c(c2)CC[C@H]([C@](C)(O/N=C(\C(=O)N[C@@H]2C(=O)N(OS(=O)(=O)O)C2(C)C)c2csc(N)n2)C(=O)O)O3)CC[C@@H](N)CC1` [Compound 126, (S)-2-((R)-6-(N-((1s,4S)-4-amino-1-(methoxymethyl)cyclohexyl)carbamimidoyl)chroman-2-yl)-2-((((Z)-1-(2-aminothiazol-4-yl)-2-(((S)-2,2-dimethyl-4-oxo-1-(sulfooxy)azetidin-3-yl)amino)-2-oxoethylidene)amino)oxy)propanoic acid], in experiment [1], the “AB_CL6188 MITC95” value was 12.5 µM. In experiment [4], the “EC_CLB30016 MITC95” value was 25 µM. The “KP_CL6569 MITC95” value in experiment [2] worked out at 1.563 µM.
The corresponding values for `CC1(C)[C@H](NC(=O)/C(=N\O[C@](C)(C(=O)O)[C@H]2CCc3cc(C(=N)N[C@H]4C[C@@]5(CCNC5)C4)ccc3O2)c2csc(N)n2)C(=O)N1OS(=O)(=O)O` [Compound 23, (S)-2-((R)-6-(N-((2s,4R)-6-azaspiro[3.4]octan-2-yl)carbamimidoyl)chroman-2-yl)-2-((((Z)-1-(2-aminothiazol-4-yl)-2-(((S)-2,2-dimethyl-4-oxo-1-(sulfooxy)azetidin-3-yl)amino)-2-oxoethylidene)amino)oxy)propanoic acid] are 6.25 µM, 6.25 µM and 0.7813 µM.
